The NIST ThermoML archive (doi:10.1016/j.jct.2016.12.012)
“And” between values parts separate entries of the source, which are not always exact repeats. Equal entries are not always repeated.

Legend:
[1] = Molar enthalpy of transition or fusion; conditions: DSC
[2] = for Normal melting temperature: DTA

COc1ccc(C(C)=O)cc1 [4'-methoxyacetophenone]
Crystal
Conditions | Molar enthalpy of transition or fusion [kcal/mol] | Normal melting temperature [°C]
[1] | 4.02 | –
[2] | – | 37.2

[2]
Conditions | vapor or sublimation pressure [kPa]
296.23 K, Crystal, Closed cell (Static) method | 0.00059
298.19 K, Crystal, Closed cell (Static) method | 0.00075
300.19 K, Crystal, Closed cell (Static) method | 0.00096
302.13 K, Metastable liquid, Closed cell (Static) method | 0.00143
302.18 K, Crystal, Closed cell (Static) method | 0.00121
304.14 K, Metastable liquid, Closed cell (Static) method | 0.00174
304.15 K, Crystal, Closed cell (Static) method | 0.00153
306.09 K, Metastable liquid, Closed cell (Static) method | 0.00209
306.12 K, Crystal, Closed cell (Static) method | 0.00192
308.1 K, Crystal, Closed cell (Static) method | 0.00239
308.12 K, Metastable liquid, Closed cell (Static) method | 0.00251
310.08 K, Metastable liquid, Closed cell (Static) method | 0.00301
312.06 K, Closed cell (Static) method, Liquid | 0.0036
314.2 K, Closed cell (Static) method, Liquid | 0.00436
316.08 K, Closed cell (Static) method, Liquid | 0.00516
318.02 K, Closed cell (Static) method, Liquid | 0.0061
320.04 K, Closed cell (Static) method, Liquid | 0.00716
321.98 K, Closed cell (Static) method, Liquid | 0.00847
324.01 K, Closed cell (Static) method, Liquid | 0.01002
326 K, Closed cell (Static) method, Liquid | 0.01174
327.92 K, Closed cell (Static) method, Liquid | 0.01375
329.93 K, Closed cell (Static) method, Liquid | 0.01614
331.9 K, Closed cell (Static) method, Liquid | 0.0189
333.88 K, Closed cell (Static) method, Liquid | 0.02202
335.86 K, Closed cell (Static) method, Liquid | 0.02563
337.93 K, Closed cell (Static) method, Liquid | 0.02998
339.82 K, Closed cell (Static) method, Liquid | 0.03463
341.89 K, Closed cell (Static) method, Liquid | 0.04012
343.72 K, Closed cell (Static) method, Liquid | 0.04593
345.84 K, Closed cell (Static) method, Liquid | 0.05323
347.69 K, Closed cell (Static) method, Liquid | 0.06033
349.8 K, Closed cell (Static) method, Liquid | 0.06953
351.63 K, Closed cell (Static) method, Liquid | 0.07823
353.72 K, Closed cell (Static) method, Liquid | 0.09003
355.73 K, Closed cell (Static) method, Liquid | 0.1035

CC(=O)Oc1ccc(C(C)=O)cc1 [4-acetoxyacetophenone]
Conditions | Molar enthalpy of transition or fusion, Crystal 1 [kcal/mol] | Molar enthalpy of transition or fusion, Crystal 2 [kcal/mol] | Normal melting temperature, Crystal 1 [°C] | Triple point temperature, Crystal 2, DSC [K]
[1] | 4.97 | 0.143 | – | –
[2] | – | – | 51.0 | 310.1

[2]
Conditions | vapor or sublimation pressure
298.12 K, Crystal 2, Calculated from knudsen effusion weight loss | 9.3e-05 kPa
299.15 K, Crystal 2, Calculated from knudsen effusion weight loss | 0.000105 kPa and 0.000106 kPa
300.3 K, Crystal 2, Calculated from knudsen effusion weight loss | 0.000123 kPa
301.34 K, Crystal 2, Calculated from knudsen effusion weight loss | 0.000143 kPa and 0.000142 kPa and 0.000141 kPa
302.25 K, Crystal 2, Calculated from knudsen effusion weight loss | 0.000159 kPa
303.23 K, Crystal 2, Calculated from knudsen effusion weight loss | 0.000185 kPa and 0.000184 kPa
304.1 K, Crystal 2, Calculated from knudsen effusion weight loss | 0.000202 kPa and 0.000205 kPa
305.13 K, Crystal 2, Calculated from knudsen effusion weight loss | 0.00023 kPa and 0.000232 kPa and 0.000229 kPa
306.26 K, Crystal 2, Calculated from knudsen effusion weight loss | 0.000268 kPa and 0.000266 kPa
307.14 K, Crystal 2, Calculated from knudsen effusion weight loss | 0.0003 kPa and 0.000301 kPa
308.25 K, Crystal 2, Calculated from knudsen effusion weight loss | 0.000347 kPa and 0.000346 kPa
309.29 K, Crystal 2, Calculated from knudsen effusion weight loss | 0.000397 kPa and 0.000395 kPa and 0.000394 kPa
315 K, Crystal 1, Closed cell (Static) method | 0.00078 kPa
316 K, Crystal 1, Closed cell (Static) method | 0.00087 kPa
317 K, Crystal 1, Closed cell (Static) method | 0.00098 kPa
317.96 K, Crystal 1, Closed cell (Static) method | 0.00109 kPa
318.99 K, Crystal 1, Closed cell (Static) method | 0.00123 kPa
319.96 K, Crystal 1, Closed cell (Static) method | 0.00139 kPa
321.01 K, Crystal 1, Closed cell (Static) method | 0.00155 kPa
321.89 K, Crystal 1, Closed cell (Static) method | 0.00173 kPa
322.88 K, Crystal 1, Closed cell (Static) method | 0.00195 kPa
323.91 K, Crystal 1, Closed cell (Static) method | 0.00218 kPa

[2], Liquid, Closed cell (Static) method
Conditions | vapor or sublimation pressure [kPa]
328.88 K | 0.00341
330.91 K | 0.00406
332.89 K | 0.00478
334.84 K | 0.00555
336.85 K | 0.00658
338.81 K | 0.00777
340.85 K | 0.00908
342.77 K | 0.01045
344.77 K | 0.01225
346.74 K | 0.01408
348.68 K | 0.01633
350.65 K | 0.01885
352.66 K | 0.02182
354.62 K | 0.02505
356.57 K | 0.02907
358.59 K | 0.03305
360.49 K | 0.03795
362.51 K | 0.04335
364.46 K | 0.04961
366.46 K | 0.05645
368.38 K | 0.06404
370.41 K | 0.07307
372.31 K | 0.08205
374.34 K | 0.09319
376.33 K | 0.1048
378.32 K | 0.1186
